According to US20240043859A1, “HERBICIDE-RESISTANT PROTEIN, AND GENE AND USE THEREOF” (QINGDAO KINGAGROOT CHEMICAL COMPOUND CO., LTD., priority 2020, published 2024):
“Also recorded” adds a separate entry of the source.

Key:
Arabidopsis thaliana = assay: Herbicide resistance of transgenic Arabidopsis thaliana seedlings on plate medium (root growth); type: in vivo; conditions: plate medium: 2,4-D 0.3 μmol; 2,4-DB sodium 0.7 μmol; MCPA 0.1 μmol
Description: Expression in Arabidopsis thaliana was regulated by its AtUbi10 Arabidopsis thaliana ubiquitin promoter and the MAS (mannopine synthase) terminator. Hygromycin resistance gene (HygR=hpt) served as the selection marker.
Preparation of Agrobacterium infection solution: An activated Agrobacterium (GV3101) monoclone was picked and inoculated in 30 ml YEP liquid medium [yeast powder 10 g/L, tryptone 10 g/L, NaCl 5 g/L, 25 mg/L Rifampicin and 50 mg/L Kanamycin], shaking-cultured at 200 rmp/min, 28° C. overnight until the OD600 was about 1.0-1.5, then centrifuged at 6000 rmp/min for 10 min to collect the bacteria, and the supernatant was discarded. Arabidopsis thaliana infection solution (sucrose 50 g/L, Silwet L-77 300 μL/L, no need to adjust pH) was used to resuspend the cells to OD600=0.8 for later use.
Genetic transformation of Arabidopsis thaliana by flower dipping: Before transformation of Arabidopsis thaliana plants, attentions were paid to whether the plants were growing well, the inflorescences were abundant, and no stress response occurred. The first transformation was performed when plants were about 20 cm high. Plants could be properly watered if the soil was dry. The grown siliques were cut off with scissors the day before transformation. The inflorescences of the plants to be transformed were soaked in the above-mentioned Agrobacterium solution for 30 seconds to 1 minute, which was stirred gently during the period. And a layer of liquid film should appear on the infiltrated plant. The transformed plants were cultured in a dark environment for 24 hours, and then taken out and grown in a normal light environment. A second transformation could be performed in the same way a week later. […]

soybean William82 = assay: Spray testing of transgenic soybean T1 seedlings; type: in vivo; conditions: 4.48 kg/ha foliage spray, 10 days after spraying
Source text: 1. Vector construction: the pQY2330 vector (see FIG. 8-1) was used as the overexpression vector, containing a Bar resistance gene that can be used as a selection marker for glufosinate. The AAD-like gene, QYD42, SEQ ID NO. 83, was linked to the Xho I restriction site by seamless cloning to construct the transgenic expression vector pQY2330, of which the expression cassette consisted of a double CaMV35S promoter, the AAD-like gene QYD42 and a […] Nos terminator.
2. Genetic transformation of soybeans: Soybean transformation was carried out using the Agrobacterium-mediated cotyledon nodes transformation method (Pareddy D, Chennareddy S, Anthony G, et al. Improved soybean transformation for efficient and high throughput transgenic production[J]. Transgenic Research, 2020, 29(968)). A monoclone of the Agrobacterium (EHA105) comprising the overexpression vector pQY2330 was inoculated into 5 ml YEP liquid medium (containing 25 mg/L Rifampicin and 50 mg/L Kanamycin) and shaking-cultured at 220 rmp/min, 28° C. for 8 hours. And then 0.2-0.3 ml bacteria solution was transferred to 200 ml YEP liquid medium (containing 25 mg/L Rifampicin and 50 mg/L Kanamycin) and shaking-cultured at 220 rmp/min, 28° C. overnight until the bacteria reached the exponential growth stage, then centrifuged at 4000 rmp/min for 20 min to collect the cells into a 50 ml centrifuge tube (sterilized). […]

O=C(O)COc1ccc(Cl)cc1Cl [2,4-D, (2,4-dichlorophenoxy)acetic acid, reference compound]
Effect of the herbicide on seminal roots of wild-type Col-0 (Arabidopsis thaliana): uncapable of growing roots; also recorded: seminal roots are inhibited; also recorded: seminal roots are not able to grow
Effect of the herbicide spray on non-transgenic soybean William82 (soybean William82): all non-transgenic recipient parents died and die
